# Source: paper PMC8885691, “Leveraging the multivalent p53 peptide-MdmX interaction to guide the improvement of small molecule inhibitors” (Nature Communications, 2022)
# Where no end group is shown, it is not given here.
# Assays:
# [1] = tested on: HCT116, RKO, and H460a cells; test: Real-time RT-qPCR of p21 and p53 genes in cancer cells with wild-type p53; assay type: cell-based; details: H203 for 8 h
# Procedure: […]. […] […]. Total RNAs were extracted using a Trizol protocol with RNeasy® Mini kit from Qiagen (TX, USA). The concentration of RNAs was measured with Nanodrop-2000c. Real-time qPCR was performed with a BaldStar TaqMan One-Step RT-qPCR Kit from Biorab (Beijing, China) on a BioRad CFX96 qPCR instrument (CA, USA). The primers and probes for qPCR were designed using Primer Express 3.0 software (Applied Biosystems, USA). […]. TaqMan probes were labeled with 5′-FAM and 3′-TAMRA. All primers and probes were synthesized by GenScript (Nanjing, China). Samples were analyzed in triplicate and normalized to the control.
# N-MdmX = molecular target: T1, N-MdmX (Homo sapiens, UniProt O15151); test: Isothermal titration calorimetry (ITC) assay
# T1 sequence (O15151 22-110): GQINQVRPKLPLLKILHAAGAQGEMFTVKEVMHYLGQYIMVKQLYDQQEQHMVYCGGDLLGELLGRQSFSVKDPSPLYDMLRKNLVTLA
# Procedure: The protein−ligand interactions were characterized using a model ITC-200 isothermal titration microcalorimeter (Malvern, USA) at 25 °C. A typical experiment included the injection of 19 aliquots (2.0 μL each) containing an ~0.2 mM ligand solution into an ~10–20 μM protein solution in the ITC cell (volume of ∼200 μL). Titrations were performed with a stirring speed of 750 rpm and a spacing time of 120 s. A control experiment was run by injecting a ligand solution into buffer instead of a protein solution in the cell. Before data analysis, the control values were subtracted from the experimental data. The binding isotherms were integrated to give the enthalpy change (ΔH) plotted as a function of the molar ratio of the ligand. When necessary, prior to the integration procedures, the baseline was manually adjusted to minimize the background noise. The Origin 7.0-based software was used for data analysis with the one-set-of-binding-sites model. The disassociation constant of Kd was determined from the slope of the central linear part of the fractional saturation curve. The Gibbs free energy change (ΔG) and the entropy change (ΔS) were calculated on the basis of the following equations: ΔG =−RT ln Kd = ΔH − TΔS, where ΔH was derived from the original ΔH/molar ratio plots.
Molecule,transcription of the p53 gene [1],transcription of p21 ([1]; all three cell lines),Kd (N-MdmX) [µM]
O=C1CN(C(=O)N2C(c3ccc4c(c3)N(c3ccccc3)C(=O)CNC4=O)=N[C@@H](c3ccc(Cl)cc3)[C@H]2c2ccc(Cl)cc2)CCN1 [H203],unaffected,increased in a dose-dependent manner,–
WKLLPEN [p53p^ΔF19],–,–,20.1 ± 3.25
